7 compounds from patent publication US11912693B2, “Compounds for modulating S1P1 activity and methods of using the same” (TREVENA, INC., priority 2017, dated 2024) can be followed below.

Common to all, as to type: cell-based
In experiment [1] the target is T1, human sphingosine-1-phosphate receptor 1 (S1P1) (Homo sapiens (Human), UniProt P21453). As to the kind of experiment: Inhibition of cAMP production (HTRF cAMP HiRange), S1P1 CHO-K1 cells. Conditions: for hS1P1 cAMP pEC50: inhibition of cAMP production, S1P1 CHO-K1 cells. The gist of the method:
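CHO-K1 cells stably co-expressing human S1P1 (C-terminal Prolink tag) and EA-β-arrestin2 were grown in AssayComplete Media 6 at 37° C. and 5% CO2, plated, and incubated overnight. Agonist-driven inhibition of intracellular cAMP was read by TR-FRET with the HTRF cAMP HiRange kit on a PheraStar reader. Potency is pEC50, and efficacy (SPAN) is normalized to fingolimod.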
Target sequence in this assay (P21453 whole entry, looked up): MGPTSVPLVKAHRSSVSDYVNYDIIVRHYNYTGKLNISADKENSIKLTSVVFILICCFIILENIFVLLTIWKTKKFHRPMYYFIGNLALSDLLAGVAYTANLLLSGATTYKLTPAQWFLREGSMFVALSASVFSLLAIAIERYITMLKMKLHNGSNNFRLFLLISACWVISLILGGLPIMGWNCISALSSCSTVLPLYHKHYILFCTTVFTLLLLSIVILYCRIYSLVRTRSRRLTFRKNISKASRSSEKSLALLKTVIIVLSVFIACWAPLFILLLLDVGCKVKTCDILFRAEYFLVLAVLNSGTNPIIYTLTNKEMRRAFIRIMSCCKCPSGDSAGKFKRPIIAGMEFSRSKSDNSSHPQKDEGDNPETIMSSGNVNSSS

In experiment [2] the target is human sphingosine-1-phosphate receptor 3 (S1P3) (Homo sapiens (Human), UniProt Q99500). Put plainly: Inhibition of cAMP production (HTRF), S1P3 CHO-K1 cells. The conditions noted are these: for hS1P3 cAMP pEC50: inhibition of cAMP production. How it is done: (§1) Stable clonal Chinese hamster ovary K1 (CHO-K1) cells co-expressing EA-β-arrestin2 and the human sphingosine-1-phosphate receptor 2 (NM_004230.3, S1P2), human sphingosine-1-phosphate receptor 3 (NM_005226, S1P3) and sphingosine-1-phosphate receptor 5 (NM_001166215.1, S1P5) with a C-terminal Prolink™ tag were purchased from DiscoverX corporation (S1P2: Cat #93-0256C2, S1P3: Cat #93-0217C2, S1P5: Cat #93-0583C2).
Chain of human sphingosine-1-phosphate receptor 3 (S1P3) (Q99500 whole entry): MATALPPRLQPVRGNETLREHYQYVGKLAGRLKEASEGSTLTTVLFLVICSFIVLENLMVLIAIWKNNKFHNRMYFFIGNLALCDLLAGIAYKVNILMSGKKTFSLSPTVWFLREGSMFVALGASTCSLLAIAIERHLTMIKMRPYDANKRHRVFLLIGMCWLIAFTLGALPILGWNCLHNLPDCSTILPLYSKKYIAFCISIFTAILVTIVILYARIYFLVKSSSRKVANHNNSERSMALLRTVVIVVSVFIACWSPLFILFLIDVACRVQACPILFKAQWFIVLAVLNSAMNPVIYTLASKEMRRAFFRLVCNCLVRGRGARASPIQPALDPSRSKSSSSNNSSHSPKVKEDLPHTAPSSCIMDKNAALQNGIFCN
(§2) Cell lines were cultured in AssayComplete™ Media 6 (DiscoverX Corporation, Cat #: 920018GF2) at 37° C. and 5% CO2 in a humidified CO2 and temperature-controlled incubator. To begin assay plating, cells were washed with dulbecco's phosphate buffered saline (CellGro, Cat #: 21-031-CV) and lifted from the culturing flask by incubation (37° C., 5 min) with CellStripper (Cellgro, Cat #: 25-056-CI). […] Plated cells were incubated overnight at 37° C. and 5% CO2 in a humidified CO2 and temperature-controlled incubator.
(§3) S1P3 and S1P5 Agonist-promoted G-protein responses were determined by measuring changes in intracellular cAMP using the HTRF® cAMP HiRange kit (CisBio, Cat #: 62AM6PEJ) based on time-resolved fluorescence resonance energy transfer (TR-FRET) technology. […] Following a 30-minute room temperature incubation the components of the cAMP HiRange kit were added as per the manufacturer's instructions. After an hour incubation at room temperature, plates were analyzed by a BMG PheraStar microplate reader.
(§4) The tables below include the efficacy of the compound as compared to a positive control, referred to as “SPAN”. These values are normalized to fingolimod, a known agonist of the sphingosine-1-phosphate 3 and 5 receptor or CYM5520, a known agonist of the sphingosine-1-phosphate 2 receptor. The tables also include potency values (pEC50) for modulating discrete receptor-mediated activities (inhibition of cAMP production or inositol monophosphate accumulation).
For orientation: Changes in cAMP serve as a functional read-out for many G protein-coupled receptors.

Experiment [3] deals with sphingosine-1-phosphate receptor 5 (S1P5) (Homo sapiens (Human), UniProt Q9H228). Put plainly: Inhibition of cAMP production (HTRF), S1P5 CHO-K1 cells. Conditions: for hS1P5 cAMP pEC50: inhibition of cAMP production. How it is done:
as §1, §2, §3, §4

Experiment [4] deals with human sphingosine-1-phosphate receptor 2 (S1P2) (Homo sapiens (Human), UniProt O95136). As to the kind of experiment: Inositol monophosphate production (IP-one TB kit), S1P2 CHO-K1 cells. Conditions: for hS1P2 IP-one pEC50: inositol monophosphate accumulation. How it is done: as §1, §2
Chain of human sphingosine-1-phosphate receptor 2 (S1P2) (O95136 whole entry): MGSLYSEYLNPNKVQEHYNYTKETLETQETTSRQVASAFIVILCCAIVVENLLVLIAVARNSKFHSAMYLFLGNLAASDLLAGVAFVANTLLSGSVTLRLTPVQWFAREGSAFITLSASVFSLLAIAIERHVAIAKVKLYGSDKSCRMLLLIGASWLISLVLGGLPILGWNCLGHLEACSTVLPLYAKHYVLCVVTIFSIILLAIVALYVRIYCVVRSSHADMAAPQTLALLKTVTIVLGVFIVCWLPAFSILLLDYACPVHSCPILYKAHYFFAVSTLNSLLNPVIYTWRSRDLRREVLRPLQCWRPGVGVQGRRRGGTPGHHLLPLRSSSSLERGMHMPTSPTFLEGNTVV
S1P2 Agonist-promoted G-protein responses were determined by measuring changes in intracellular inositol monophosphate using the IP-one TB kit (CisBio, Cat #: 62IPAPEJ) based on time-resolved fluorescence resonance energy transfer (TR-FRET) technology. AssayComplete™ Cell Plating 2 Reagent was removed and replaced with 1× IP-one stimulation buffer (as per manufacturer's instructions) along with test or control compounds at the desired concentrations. Following a 60-minute incubation at 37° C. and 5% CO2 in a humidified CO2 and temperature-controlled incubator, the components of the IP-one TB kit were added as per the manufacturer's instructions. After an hour incubation at room temperature, plates were analyzed by a BMG PheraStar microplate reader.
as §4

Experiment [5] has as its target T1, human sphingosine-1-phosphate receptor 1 (S1P1). Put plainly: β-Arrestin2 recruitment assay (PathHunter), S1P1 CHO-K1 cells. The conditions noted are these: for hS1P1 B-arrestin2 pEC50: β-arrestin2 recruitment, S1P1 CHO-K1 cells. The gist of the method:
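Enzyme-fragment complementation read-out: agonist-driven β-arrestin2 binding to ProLink-tagged human S1P1 in stable CHO-K1 cells restores β-galactosidase, measured 1 h at room temperature after a 60 min 37° C. compound incubation. Potency as pEC50, efficacy relative to fingolimod (SPAN).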
Target sequence in this assay (P21453 whole entry, looked up): as the sequence (P21453 whole entry, looked up) above
Target sequence in this assay (P32121 whole entry partner, looked up): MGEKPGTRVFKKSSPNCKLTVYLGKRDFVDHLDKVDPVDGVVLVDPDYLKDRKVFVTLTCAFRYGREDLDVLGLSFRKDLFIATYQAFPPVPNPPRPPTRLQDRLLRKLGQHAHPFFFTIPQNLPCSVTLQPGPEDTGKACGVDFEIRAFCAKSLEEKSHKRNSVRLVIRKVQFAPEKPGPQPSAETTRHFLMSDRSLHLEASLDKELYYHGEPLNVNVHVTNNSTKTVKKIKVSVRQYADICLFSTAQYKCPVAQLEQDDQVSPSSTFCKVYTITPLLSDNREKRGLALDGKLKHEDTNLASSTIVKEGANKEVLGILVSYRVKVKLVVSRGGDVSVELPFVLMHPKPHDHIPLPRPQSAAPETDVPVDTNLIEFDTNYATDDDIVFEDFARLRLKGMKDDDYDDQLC
On the technique in general: Recruitment of arrestin is a read-out of receptor activation apart from second messengers.

Setting [6] is: efficacy (SPAN) normalized to fingolimod.
[7] abbreviates: efficacy normalized to fingolimod.

Chain of sphingosine-1-phosphate receptor 5 (S1P5) (Q9H228 whole entry): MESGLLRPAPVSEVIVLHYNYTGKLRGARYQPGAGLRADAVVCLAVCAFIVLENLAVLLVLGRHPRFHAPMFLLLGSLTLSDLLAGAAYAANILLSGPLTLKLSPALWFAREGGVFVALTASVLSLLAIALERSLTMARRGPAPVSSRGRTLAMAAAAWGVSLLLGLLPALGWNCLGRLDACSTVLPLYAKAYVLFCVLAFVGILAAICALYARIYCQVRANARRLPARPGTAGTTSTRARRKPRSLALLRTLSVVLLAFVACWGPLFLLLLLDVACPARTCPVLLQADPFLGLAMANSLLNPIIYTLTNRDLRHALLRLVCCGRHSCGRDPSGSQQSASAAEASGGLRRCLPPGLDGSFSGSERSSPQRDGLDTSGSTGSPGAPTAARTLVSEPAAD

Turning to `C=CCNc1ccc(-c2nc(-c3ccc4[nH]ncc4c3)no2)cc1C#N` [Compound 141, 5-(3-(1H-indazol-5-yl)-1,2,4-oxadiazol-5-yl)-2-(allylamino)benzonitrile], the Emax in experiment [1] (CHO-K1, efficacy (SPAN) normalized to fingolimod, read-out: hS1P1 cAMP SPAN) was > 75%; in experiment [2] (CHO-K1, efficacy normalized to fingolimod, read-out: hS1P3 cAMP SPAN) it was > 50%; in experiment [3] (CHO-K1, efficacy normalized to fingolimod, read-out: hS1P5 cAMP SPAN), > 50%; in experiment [4] (CHO-K1, efficacy normalized to CYM5520, read-out: hS1P2 IP-one SPAN), < 50%; in experiment [5] (CHO-K1, efficacy (SPAN) normalized to fingolimod, read-out: hS1P1 B-arrestin2 SPAN), > 75%. In addition, the “hS1P1 cAMP pEC50” value in experiment [1] is on record as >6.5. Also, the “hS1P3 cAMP pEC50” value in experiment [2] is >5.0. For the same compound, the “hS1P5 cAMP pEC50” value in experiment [3] was >5.0. The “hS1P2 IP-one pEC50” value in experiment [4] is on record as <5.0. For the same compound, the “hS1P1 B-arrestin2 pEC50” value in experiment [5] is >5.

With `CCC1(CC)CC(=O)c2cc(-c3nc(-c4ccc5[nH]ncc5c4)no3)ccc2O1` [Compound 152, 6-(3-(1H-indazol-5-yl)-1,2,4-oxadiazol-5-yl)-2,2-diethylchroman-4-one], the “hS1P1 cAMP SPAN” value in experiment [1] (setting [6]) is >75. Further, the “hS1P1 cAMP pEC50” value in experiment [1] is reported as <6.5. For the same compound, the “hS1P3 cAMP SPAN” value in experiment [2] (setting [7]) is <50. Further, in experiment [2], the “hS1P3 cAMP pEC50” value is <5.0. Also, the “hS1P5 cAMP SPAN” value in experiment [3] (setting [7]) is <50. The “hS1P5 cAMP pEC50” value in experiment [3] is <5.0. Further, the “hS1P2 IP-one SPAN” value in experiment [4] (efficacy normalized to CYM5520) is reported as <50. The “hS1P2 IP-one pEC50” value in experiment [4] is given as <5.0. Moreover, the “hS1P1 B-arrestin2 SPAN” value in experiment [5] (setting [6]) is >75. Further, the “hS1P1 B-arrestin2 pEC50” value in experiment [5] is reported as >5.

As to `CC(C)n1nnc2cc(-c3nc4c(o3)Cc3ccccc3-4)ccc21` [Compound 219, 5-{8H-indeno[1,2-d][1,3]oxazol-2-yl}-1-(propan-2-yl)-1H-1,2,3-benzotriazole], the “hS1P1 cAMP pEC50” value in experiment [1] was >6.5. Moreover, in experiment [2], the “hS1P3 cAMP pEC50” value is listed as <5.0. The “hS1P5 cAMP pEC50” value in experiment [3] is recorded as <5.0. In experiment [4], the “hS1P2 IP-one pEC50” value is recorded as >5.0. Moreover, in experiment [5], the “hS1P1 B-arrestin2 pEC50” value is given as >5.

For `COc1cnccc1-c1nc(-c2ccc3c(ccn3C(C)C)c2)no1` [Compound 391, 3-(1-isopropyl-1H-indol-5-yl)-5-(3-methoxypyridin-4-yl)-1,2,4-oxadiazole], the “hS1P1 cAMP pEC50” value in experiment [1] is on record as >6.5. Besides, the “hS1P3 cAMP pEC50” value in experiment [2] is listed as >5.0. In addition, the “hS1P5 cAMP pEC50” value in experiment [3] is given as >5.0. In addition, in experiment [4], the “hS1P2 IP-one pEC50” value is recorded as >5.0. Besides, the “hS1P1 B-arrestin2 pEC50” value in experiment [5] is listed as >5.

With `COc1ccccc1-c1nc(-c2ccc3c(ccn3C(C)C)c2)no1` [Compound 398, 3-(1-isopropyl-1H-indol-5-yl)-5-(2-methoxyphenyl)-1,2,4-oxadiazole], the “hS1P1 cAMP pEC50” value in experiment [1] is >6.5. In addition, in experiment [2], the “hS1P3 cAMP pEC50” value is <5.0. In addition, in experiment [3], the “hS1P5 cAMP pEC50” value was <5.0. The “hS1P2 IP-one pEC50” value in experiment [4] is <5.0. In addition, the “hS1P1 B-arrestin2 pEC50” value in experiment [5] is on record as >5.

In the case of `COc1ccccc1-c1nnc(-c2ccc3c(c2)oc(=O)n3C)o1` [Compound 406, 6-[5-(2-methoxyphenyl)-1,3,4-oxadiazol-2-yl]-3-methyl-2,3-dihydro-1,3-benzoxazol-2-one], the “hS1P1 cAMP pEC50” value in experiment [1] is on record as >6.5. Moreover, the “hS1P3 cAMP pEC50” value in experiment [2] was <5.0. Also, in experiment [3], the “hS1P5 cAMP pEC50” value is <5.0. For the same compound, the “hS1P2 IP-one pEC50” value in experiment [4] is given as <5.0. In addition, the “hS1P1 B-arrestin2 pEC50” value in experiment [5] is >5.

For `Cc1ccncc1-c1noc(-c2ccc3c(c2)nnn3C2CCC2)n1` [Compound 417, 1-cyclobutyl-5-[3-(4-methylpyridin-3-yl)-1,2,4-oxadiazol-5-yl]-1H-1,2,3-benzotriazole], the “hS1P1 cAMP pEC50” value in experiment [1] was >6.5. In addition, the “hS1P3 cAMP pEC50” value in experiment [2] was <5.0. In experiment [3], the “hS1P5 cAMP pEC50” value is <5.0. In addition, in experiment [4], the “hS1P2 IP-one pEC50” value is reported as >5.0. For the same compound, the “hS1P1 B-arrestin2 pEC50” value in experiment [5] is given as >5.
